Data reported in patent publication US6140120A, “Regulated transcription of targeted genes and other biological events” (Board of Trustees of Leland Stanford Jr. University, priority 1998, dated 2000).
Entries after “also recorded” stand apart in the source; their conditions may differ. Where two headings read alike, the source gives them in different places.

Legend:
calcineurin = settings: complex with cyclophilin or FKBP12; cited from earlier work
[1] = system: myristoylated chimeric CD3/FKBP12 (MZF3E) receptor; assay: NFAT-SEAP reporter through myristoylated chimeric CD3/FKBP12 (MZF3E) receptor; format: cell-based, human
Source text: In an illustrative case, this was accomplished by creating an intracellular receptor comprised of a small fragment of Src sufficient for posttranslational myristoylation (M), the cytoplasmic tail of zeta (Z; a component of the […] was also used), three consecutive FKBP12s (F3) and a flu epitope tag (E). Upon expressing the construct MZF3E (FIG. 18) in human (Jurkat) T cells, we confirmed that the encoded chimeric protein underwent FK1012-mediated oligomerization. The attendant aggregation of the zeta chains led to signaling via the endogenous TCR-signaling pathway (FIG. 15), as evidenced by secretion of alkaline phosphatase (SEAP) in response to an FK1012 (EC50 =50 nM). The promoter of the SEAP reporter gene was constructed to be transcriptionally activated by nuclear factor of activated T cells (NFAT), which is assembled in the nucleus following TCR-signaling.
Specifically, 5 μg of the eukaryotic expression vector, pBJ5, containing a myristoylated chimeric receptor was co-transfected with 4 μg NFAT-SX. MZE, MZF1E, MZF2E and MZF3E contain 0,1, 2, or 3 copies of FKBP12, respectively, downstream of a myristoylated CD3 cytoplasmic domain (see FIG. 2). As a control, 5 μg of pBJ5 was used in a parallel transfection. After 24 hours, aliquots of each transfection containing approximately 10^5 cells were incubated with log dilutions of the drug, FK1012B, as indicated. As a positive control and to control for transfection efficiency, ionomycin (1 μm) and PMA (25 ng/ml) were added to aliquots from each transfection. After an additional 12 hour incubation, the supernatants were assayed for alkaline phosphatase activity and these activities were expressed relative to that of the positive control samples. […] Compare FIGS. 7 and 8.

[2] = system: TAC/TAC/Z (TTZ) chimeric receptor; IL-2 enhancer/NFAT reporter in TAg Jurkat cells; assay: SEAP reporter induction through chimeric receptor TAC/TAC/Z (TTZ); format: cell-based, human; settings: 1 ng/ml FK506
Protocol: As a positive control and to control for transfection efficiency, ionomycin (1 μm) and PMA (25 ng/ml) were added to aliquots from each transfection.

[3] = system: chimeric FKBP12/CD3 (1FK3) receptor; assay: NFAT-SEAP reporter through chimeric FKBP12/CD3 (1FK3) receptor; format: cell-based, human; settings: 2 ng/ml FK506; FK1012A-stimulated
Protocol: 5 μg of the eukaryotic expression vector, pBJ5, (based on pCDL-SR with a polylinker inserted between the 16S splice site and the poly A site), containing the chimeric receptor (1FK3), was co-transfected with 4 μg of the NFAT-inducible secreted alkaline phosphatase reporter plasmid, NFAT-SX. As a control, 5 μg of pBJ5 was used, instead of 1FK3/pBJ5, in a parallel transfection. After 24 hours, aliquots of each transfection containing approximately 10^5 cells were incubated with log dilutions of the drug, FK1012A, as indicated. As a positive control and to control for transfection efficiency, ionomycin (1 μm) and PMA (25 ng/ml) were added to aliquots from each transfection. After an additional 14 hour incubation, the supernatants were assayed for alkaline phosphatase activity and these activities were expressed relative to that of the positive control samples.

cell culture = assay: Toxicity in cell culture; format: cell-based
[4] = system: Fas-FKBP12 fusion protein (MFF3E) in Jurkat T cells; assay: Cell death/apoptosis through Fas-FKBP12 fusion MFF3E in Jurkat T cells; format: cell-based; settings: human Jurkat T cells
Source text: FIG. 21B depicts Immunphilin-Fas antigen chirneras and results of transient expression experiments in Jurkat T cells stably transformed with large T-antigen. Myr: the myristylation sequence taken from pp60^c-src encoding residues 1-14 (Wilson et al, Mol & Cell Biol 9 4 (1989): 1536-44); FKBP: human FKBP12; CypC: murine cyclophilin C sequence encoding residues 36-212 (Freidman et al, Cell 66 4 (1991): 799-806); Fas: intracellular domain of human Fas antigen encoding residues 179-319 (Oehm et al, J Biol Chem 267 15 (1992): 10709-15). Cells were electroporated with a plasmid encoding a secreted alkaline phosphatase reporter gene under the control of 3 tandem API promoters along with a six fold molar excess of the immunophilin fusion construct. After 24 h the cells were stimulated with PMA (50 ng/mL), which stimulates the synthesis of the reporter gene, and (CsA)2. At 48 h the cells were assayed for reporter gene activity. Western blots were performed at 24 h using anti-HA epitope antibodies.
A chimeric cDNA has been constructed consisting of three FKBP12 domains fused to the cytoplasmic signaling domain of the Fas antigen (FIG. 20). […] Since the stable transfectants represent a homogeneous population of cells, they have been used to ascertain that death is due to apoptosis rather than necrosis (membrane blebbing, nucleosomal DNA fragmentation). […]

FKBP12 = FKBP12 (Homo sapiens, UniProt P62942); assay: Binding of FK1012s, stoichiometry and Kd; settings: 2:1 binding stoichiometry
Sequence of FKBP12 (P62942 whole entry): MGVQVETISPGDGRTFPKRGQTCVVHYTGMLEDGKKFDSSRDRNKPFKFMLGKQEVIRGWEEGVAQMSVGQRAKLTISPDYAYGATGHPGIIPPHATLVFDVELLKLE

[5] = system: calcineurin-mediated TCR signaling; assay: Inhibition of calcineurin-mediated TCR signaling / immunosuppression; format: cell-based; settings: listed as FK1012s
ΔMFF3E = assay: Apoptosis with non-myristoylated construct ΔMFF3E; format: cell-based; settings: ΔMFF3E vs. myristoylated construct
[6] = system: FKBP12-Fas antigen chimera in D10 T cells; assay: Apoptosis through FKBP12-Fas chimera in D10 T cells; format: cell-based; settings: murine D10 T cells
Source text: A chimeric cDNA has been constructed consisting of three FKBP12 domains fused to the cytoplasmic signaling domain of the Fas antigen (FIG. 20). […] Since the stable transfectants represent a homogeneous population of cells, they have been used to ascertain that death is due to apoptosis rather than necrosis (membrane blebbing, nucleosomal DNA fragmentation). However, the transient transfection protocol requires much less work and has therefore been used as an initial assay system, as described below.

[7] = system: MZF3E chimera in Jurkat T cells; assay: Co-immunoprecipitation of MZF3Eflu with MZF3Eflag (induced dimerization); format: cell-based, human; settings: 1 μM
[8] = system: T cell receptor zeta chain / MZF3E in Jurkat cells; assay: Recruitment of kinase activity to zeta-chain (in vitro kinase assay after immunoprecipitation) and tyrosine phosphorylation; format: cell-based, human; settings: Jurkat cells stably transfected with MZF3E
Source text: FK1012-induced protein-tyrosine phosphorylation. The intracellular domains of the TCR, CD3 and zeta-chains interact with cytoplasmic protein tyrosine kinases following antigen stimulation. Specific members of the Src family (lck and/or fyn) phosphorylate one or more tyrosine residues of activation motifs within these intracellular domains (tyrosine activation motif, TAM). The tyrosine kinase ZAP-70 is recruited (via its two SH2 domains) to the tyrosine phosphorylated T-cell-receptor, activated, and is likely to be involved in the further downstream activation of phospholipase C. […] Tyrosine phosphorylation after treatment of cells with either anti-CD3 MAb or FK1012 was detected using monoclonal alpha-phosphotyrosine antibodies. Whole cell lysates were analysed at varying times after stimulation. […] The pattern consisted of a major band of 70 kDa, probably ZAP-70, and minor bands of 120 kDa, 62 kDa, 55 kDa and 42 kDa.

MZF1Eflu and MZF1Eflag = assay: Co-immunoprecipitation of FKBP monomer constructs MZF1E; format: cell-based, human

C=CC[C@@H]1/C=C(\C)C[C@H](C)C[C@H](OC)[C@H]2O[C@@](O)(C(=O)C(=O)N3CCCC[C@H]3C(=O)O[C@H](/C(C)=C/[C@@H]3CC[C@@H](O)[C@H](OC)C3)[C@H](C)[C@@H](O)CC1=O)[C@H](C)C[C@@H]2OC [FK506]
binding to / inactivation of calcineurin as immunophilin complex (calcineurin): binds with high affinity to calcineurin
stimulation of NFAT reporter on addition of FK506 ([1]; 1 ng/ml FK506, FK1012B-stimulated): dropped all stimulations to near background levels
response of NFAT reporter on addition of FK506 [2]: dropped all activity due to NFAT to background levels
stimulation of NFAT reporter on addition of FK506 [3]: dropped all stimulations to background levels

FK1012
toxicity (cell culture; FK1012s: up to 0.1 mM in cell culture): nor toxic (up to 0.1 mM in cell culture)
induction of cell death / apoptosis [4]: FK1012-dependent apoptosis; also recorded: cell death of the Jurkat T-cell line
EC50 ([1]; Jurkat T cells expressing MZF3E, read-out: EC50, secretion of alkaline phosphatase (SEAP)): 50 nM
Kd (FKBP12; read-out: Kd (1)): 0.1 nM
Kd (FKBP12; read-out: Kd (2)): 0.8 nM
inhibition of signaling [5]: does not inhibit signaling pathways; also recorded: do not inhibit calcineurin-mediated TCR signaling
potency of mutated construct as inducer of FK1012-dependent apoptosis (ΔMFF3E): equally potent
induction of apoptosis [6]: FK1012-dependent apoptosis

CO[C@H]1C[C@@H](C)C/C(C)=C/[C@@H](CCOC(=O)NCc2ccc(CNC(=O)OCC[C@@H]3/C=C(\C)C[C@H](C)C[C@H](OC)[C@H]4O[C@@](O)(C(=O)C(=O)N5CCCC[C@H]5C(=O)O[C@H](/C(C)=C/[C@@H]5CC[C@@H](O)[C@H](OC)C5)[C@H](C)[C@@H](O)CC3=O)[C@H](C)C[C@@H]4OC)cc2)C(=O)C[C@H](O)[C@@H](C)[C@@H](/C(C)=C/[C@@H]2CC[C@@H](O)[C@H](OC)C2)OC(=O)[C@@H]2CCCCN2C(=O)C(=O)[C@]2(O)O[C@H]1[C@@H](OC)C[C@H]2C [FK1012A]
coimmunoprecipitation of MZF3Eflu with MZF3Eflag [7]: interacts with MZF3Eflu and is coimmunoprecipitated with MZF3Eflag
recruitment of kinase activity to the zeta-chain [8]: recruitment of kinase activity to the zeta-chain
dimerization of FKBP monomer constructs (MZF1Eflu and MZF1Eflag): also dimerized

CO[C@H]1C[C@@H](C)C/C(C)=C/[C@@H](CCOC(=O)NCc2ccccc2)C(=O)C[C@H](O)[C@@H](C)[C@@H](/C(C)=C/[C@@H]2CC[C@@H](O)[C@H](OC)C2)OC(=O)[C@@H]2CCCCN2C(=O)C(=O)[C@]2(O)O[C@H]1[C@@H](OC)C[C@H]2C [FK506-M]
toxicity of monomeric ligand (cell culture; in words): nontoxic
termination of FK1012-induced signaling ([1]; monomeric ligand): FK1012-induced signaling can be terminated
